Assay results: patent EP1019422B1, “PHOSPHINE-SUBSTITUTED COBALTICINIUM SALTS, PRODUCTION THEREOF, AND USE OF THE SAME AS CONSTITUENTS OF CATALYSTS” (Celanese Chemicals Europe GmbH, priority 1997, dated 1999)

experiment: Solubility properties of the compounds (Table 1); format: physicochemical; details: qualitative; solvents named in the cell
Description: In Tabelle 1 sind die erfindungsgemäßen Verbindungen bezüglich ihrer Farbe/Konsistenz und bezüglich ihrer Löslichkeitseigenschaften zusammengestellt.

Row | Compound | Löslichkeitseigenschaften
1 | 1,1'-Bis(diphenylphosphino)cobalticinium Tosylat [Beispiel 4] | löslich in Methylenchlorid, Methanol, Aceton, Nitromethan
2 | C1=CC(P(c2ccccc2)c2ccccc2)C=C1.[Co+2].[F][Sb-]([F])([F])([F])([F])[F].c1ccc(P(c2ccccc2)[c-]2cccc2)cc1 [Beispiel 2, 1,1'-Bis(diphenylphosphino)cobalticinium Hexafluoroantimonat] | löslich in Methylenchlorid, Nitromethan, Methan und Aceton
3 | 1,1'-Bis(diphenylphosphinoindenyl)-cobalticinium-Tetrafluoroborat [Beispiel 8] | löslich in Methylenchlorid
4 | C1=CC(P(c2ccccc2)c2ccccc2)C=C1.O=[N+]([O-])[O-].[Co+2].c1ccc(P(c2ccccc2)[c-]2cccc2)cc1 [Beispiel 3, 1,1'-Bis (diphenylphosphino)cobalticinium Nitrat] | löslich in warmem Wasser
5 | 1,1'-Bis(diphenylphosphino)cobalticinium Trifluoracetat [Beispiel 6] | löslich in Methylenchlorid, Aceton, Methanol, Nitromethan
6 | 1,1'-Bis(diphenylphosphino)cobalticinium Tetrafluoroborat [Beispiel 1] | löslich in Methylenchlorid, Nitro-methan, Methanol und Aceton
7 | C1=CC(P(c2ccccc2)c2ccccc2)C=C1.[Co+2].c1ccc(P(c2ccccc2)[c-]2cccc2)cc1.c1ccc([B-](c2ccccc2)(c2ccccc2)c2ccccc2)cc1 [Beispiel 7, 1,1'-Bis(diphenylphosphino)cobalticinium Tetraphenylborat] | löslich in Methylenchlorid
8 | C1=CC(P(c2ccccc2)c2ccccc2)C=C1.O=S(=O)([O-])C(F)(F)F.[Co+2].c1ccc(P(c2ccccc2)[c-]2cccc2)cc1 [Beispiel 5, 1,1'-Bis(diphenylphosphino)cobalticinium Triflat] | löslich in Methylenchlorid, Aceton, Nitromethan, Methanol

same assay, conditions: water; in contrast to the other compounds of formula I and the known hexafluorophosphate

Row | Compound | Löslichkeit in Wasser
9 | C1=CC(P(c2ccccc2)c2ccccc2)C=C1.O=[N+]([O-])[O-].[Co+2].c1ccc(P(c2ccccc2)[c-]2cccc2)cc1 [Beispiel 3, 1,1'-Bis (diphenylphosphino)cobalticinium Nitrat] | gute Löslichkeit in Wasser
